From US20090253634A1, “Methods and Compositions for the Treatment of Gastrointestinal Disorders” (MICROBIA, INC., priority 2005, published 2009)
Bridge positions count the residues as written; N and C are the ends. Peptide text beside a SMILES is read from it.

Assays:
pepsin = target: T1, pepsin (Sus scrofa, UniProt P00791); experiment: in vitro proteolytic stability: pepsin; type: in vitro ADME, porcine; details: pH 2.0, 37° C., up to 3 h
T1 construct: purchased Sigma-Aldrich P68871; host or cells: porcine gastric mucosa
T1 sequence (P00791 60-385): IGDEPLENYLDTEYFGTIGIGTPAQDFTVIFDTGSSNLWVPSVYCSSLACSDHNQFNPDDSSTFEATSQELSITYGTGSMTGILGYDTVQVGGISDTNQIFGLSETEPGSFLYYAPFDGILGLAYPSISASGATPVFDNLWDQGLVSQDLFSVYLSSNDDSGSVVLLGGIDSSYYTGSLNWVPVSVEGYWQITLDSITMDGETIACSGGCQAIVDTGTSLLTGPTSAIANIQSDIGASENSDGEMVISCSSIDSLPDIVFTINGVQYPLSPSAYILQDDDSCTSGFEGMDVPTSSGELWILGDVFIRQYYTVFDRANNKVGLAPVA
Procedure: All samples were analyzed by LC/MS

gastrointestinal transit [1] = experiment: gastrointestinal transit assay in wild-type and GC-C KO mice; type: in vivo; details: oral 100 μg/kg
Procedure: Wild type and GC-C KO mice were fasted overnight and SEQ ID NO: 3 or vehicle alone were orally administered 10 minutes prior to an oral dose of a 10% Activated Carbon/10% Gum Arabic suspension. Animals were sacrificed […] after peptide or vehicle administration.

[2] = test system: ligated loop in the small intestine; experiment: ligated intestinal loop model in wild-type and GC-C KO mice; type: in vivo; details: 5 μg injected into loop, 90 minutes
Procedure: The length of each loop was also recorded.

gastrointestinal transit [3] = experiment: murine gastrointestinal transit (GIT) assay, acute and chronic dosing; type: in vivo, mice
Procedure: In order to determine whether the peptides increase the rate of gastrointestinal transit, the peptides and controls were tested using a murine gastrointestinal transit (GIT) assay (Moon et al. Infection and Immunity 25:127, 1979). In this assay, charcoal, which can be readily visualized in the gastrointestinal tract is administered to mice after the administration of a test compound. The distance traveled by the charcoal is measured and expressed as a percentage of the total length of the […].
Mice were fasted with free access to water for 12 to 16 hours before the treatment with peptide or control buffer. The peptides were orally administered at 1 μg/kg-1 mg/kg of peptide in buffer ([…] pH 7.5) 7 minutes before being given an oral dose of 5% Activated Carbon (Aldrich 242276-250G). Control mice were administered buffer only before being given a dose of Activated Carbon. After 15 minutes, the mice were sacrificed and their intestines from the stomach to the cecum were dissected. The total length of the intestine as well as the distance traveled from the stomach to the charcoal front was measured for each animal and the results are expressed as the percent of the total length of the intestine traveled by the charcoal front. All results are reported as the average of 10 mice±standard deviation. A comparison of the distance traveled by the charcoal between the mice treated with peptide versus the mice treated with vehicle alone was performed using a Student's t test and a statistically significant difference was considered for P<0.05. P-values are calculated using a two-sided T-Test assuming unequal variances.
The identical experiment was performed to determine if SEQ ID NO:3 is effective in a chronic dosing treatment regimen. Briefly, 8 week old CD1 female mice are dosed orally once a day for 5 days with either SEQ ID NO:3 (0.06 mg/kg or 0.25 mg/kg in 20 mM Tris pH 7.5) or vehicle alone (20 mM Tris pH 7.5). On the 5th day, a GIT assay is performed identical to that above except 200 μl of a 10% charcoal solution is administered. […] The results are shown side by side with acute dosing (1 day).

[4] = test system: visceromotor response to colorectal distension; experiment: water avoidance stress-induced hyperalgesia model and basal visceral nociception; type: in vivo, Wistar rats
Procedure: The effect of SEQ ID NO:3 on basal visceral nociception in a model of water avoidance stress-induced visceral hyperalgesia in adult male Wistar rats was tested. The stress involved confining rats to a platform surrounded by water for a period of 1 hour and then measuring their visceromotor response to colonic distension using electromyography (EMG).
Electrode leads were then tunneled subcutaneously and externalized laterally for future access. Following surgery, rats were housed in pairs and allowed to recover for at least 7 days. On the day of the experiment, animals were lightly anesthetized with halothane, and a lubricated latex balloon (6 cm) was inserted intra-anally into the descending colon. Animals were allowed to recover for 30 minutes, and colorectal distension (CRD) was initiated. The CRD procedure consisted of graded intensities of phasic CRD (10, 20, 40, 60 mmHg; 20 s duration; 4 min inter-stimulus interval). Visceromotor response (VMR) to CRD was quantified by measuring EMG activity. […] Animals were allowed 1 hour recovery and then SEQ ID NO:3 or vehicle was orally administered. At 1 hour following administration of SEQ ID NO:3 or vehicle CRD was repeated. […] The mean value (+/−SEM) of in vehicle and SEQ ID NO:3 treated groups (n=7 for each group) is graphically depicted in FIG. 7e.
To determine the effect of SEQ ID NO:3 in a model of water avoidance stress-induced visceral hyperalgesia, a baseline CRD was recorded and then the animals were subjected to 1 hour of water avoidance stress. For water avoidance stress, the test apparatus consisted of a Plexiglas tank with a block affixed to the center of the floor. The tank was filled with fresh room temperature water (25° C.) to within 1 cm of the top of the block. The animals were placed on the block for a period of 1 h. The sham water avoidance stress consisted in placing the rats on the same platform in a waterless container. A second CRD was performed at 24 hours post water avoidance stress. Following the second CRD, animals were allowed 1 hour recovery and then SEQ ID NO:3 or vehicle was orally administered. […]

SMILES: C[C@@H]1NC(=O)[C@@H]2CCCN2C(=O)[C@H](CC(N)=O)NC(=O)[C@@H]2CSSC[C@H](N)C(=O)N[C@H]3CSSC[C@H](NC1=O)C(=O)N[C@@H]([C@@H](C)O)C(=O)NCC(=O)N[C@H](C(=O)N[C@@H](Cc1ccc(O)cc1)C(=O)O)CSSC[C@H](NC(=O)[C@H](Cc1ccc(O)cc1)NC(=O)[C@H](CCC(=O)O)NC3=O)C(=O)N2 [SEQ ID NO:3] (H-CCEYCCNPACTGCY-OH; disulfide 1-6, 2-10, 5-13; N-terminus and C-terminus assumed)
- Cleavage of SEQ ID NO: 3 by proteolytic substance (pepsin): not detectable
- gastrointestinal transit rate versus vehicle (gastrointestinal transit [1]): an increase (p<0.001) in gastrointestinal transit rate
- cGMP activity in ligated loop fluid [2]: no effect
- secretion in ligated loop (weight to length ratio) [2]: no effect
- intestinal transit rates versus Tris buffer or equivalent dose of Zelnorm (gastrointestinal transit [3]; acute, chemically synthesized peptides, FIG. 4b): increase intestinal transit rates more than either Tris buffer alone or an equivalent dose of Zelnorm®
- gastrointestinal transit rate (gastrointestinal transit [3]; acute, oral, SEQ ID NO:4 and Zelnorm 0.1 mg/kg, FIG. 3a, 3b): increase gastrointestinal transit rate
- effect in mouse gastrointestinal motility assay upon chronic dosing (gastrointestinal transit [3]; oral once a day for 5 days, SEQ ID NO:3 0.06 or 0.25 mg/kg, FIG. 4c): effective
- basal visceral nociception ([4]; oral 3 μg/kg): had no effects
- visceromotor response to CRD 24 hours after water avoidance stress ([4]; oral 3 μg/kg): exhibited anti-hyperalgesic properties
- basal visceral nociception versus vehicle ([4]; oral 30 μg/kg): increased basal visceral nociception
